{"source": "BindingDB's records for doi:10.1016/j.ejmech.2023.115101", "about": "(n/a, 2023)", "target": "Paired box protein Pax-2 (Homo sapiens, UniProt Q02962)", "sequence (Q02962 whole entry)": "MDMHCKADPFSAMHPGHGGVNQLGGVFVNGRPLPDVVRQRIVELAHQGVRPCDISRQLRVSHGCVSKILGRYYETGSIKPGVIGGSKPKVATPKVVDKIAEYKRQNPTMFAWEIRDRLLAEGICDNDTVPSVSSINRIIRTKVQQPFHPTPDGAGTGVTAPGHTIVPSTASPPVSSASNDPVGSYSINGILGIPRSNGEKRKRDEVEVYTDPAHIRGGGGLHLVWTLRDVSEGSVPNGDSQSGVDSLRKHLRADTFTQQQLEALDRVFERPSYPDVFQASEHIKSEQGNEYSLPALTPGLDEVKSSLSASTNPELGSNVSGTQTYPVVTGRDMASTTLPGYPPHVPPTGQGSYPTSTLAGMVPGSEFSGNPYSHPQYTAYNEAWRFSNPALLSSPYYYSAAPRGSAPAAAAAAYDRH", "assay": "Inhibition of pax2 (unknown origin) in human SK-OV-3 cells measured after 24 hrs by immunoblotting analysis", "data": [{"smiles": "Cc1ccc(C)c(N2CCN(c3c(C)c(C)nc4ncnn34)CC2)c1", "values": [{"measurement": "IC50", "value": 1.5, "unit": "µM"}]}]}
